# Measurements from US11919902B2, “Aryl-bipyridine amine derivatives as phosphatidylinositol phosphate kinase inhibitors” (HiberCell, Inc., priority 2017, dated 2024).
# How the values were obtained:
# [1] = target: T1, PIP4K2A (full length protein, SignalChem) (Homo sapiens, UniProt P48426); assay: Kinase Assay PIP4K2 A (Sprint); ADP-Glo biochemical assay; conditions: Table 2; compounds listed under IC50 range headings
# T1 construct: 4 nM PIP4K2A (full length protein, SignalChem); purchased SignalChem
# T1 sequence (P48426 1-406): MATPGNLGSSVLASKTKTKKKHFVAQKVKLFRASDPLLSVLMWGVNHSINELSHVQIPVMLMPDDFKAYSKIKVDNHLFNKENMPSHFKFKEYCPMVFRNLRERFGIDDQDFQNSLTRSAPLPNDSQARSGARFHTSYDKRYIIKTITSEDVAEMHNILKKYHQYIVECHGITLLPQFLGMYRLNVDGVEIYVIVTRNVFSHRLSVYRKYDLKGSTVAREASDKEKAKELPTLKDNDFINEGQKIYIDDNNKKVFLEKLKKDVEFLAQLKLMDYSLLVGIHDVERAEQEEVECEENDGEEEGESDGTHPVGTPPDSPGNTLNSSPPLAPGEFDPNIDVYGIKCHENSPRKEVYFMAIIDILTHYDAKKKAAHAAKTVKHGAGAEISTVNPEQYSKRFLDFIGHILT
# Protocol: Dilution series of the compounds were prepared in DMSO at 100 times the final assay concentration (n1=n0/3 in 10 points). The compounds were further diluted to three times the assay concentration in assay buffer (20 mM MOPS pH 7.2, 25 mM magnesium chloride, 0.005% Tween 20). 6 μL of the diluted compounds were added to a 384 well assay plate followed by 9 μL of a mix consisting of 4 nM PIP4K2A (full length protein, SignalChem) and 100 μM PI(5)P diC8 (Tebu-Bio). Enzyme and compounds were pre-incubated at room temperature for 15 min.
# Then 3 μL of a solution containing 60 μM ATP (Promega) in assay buffer was added to the wells containing compound and enzyme and mixing was performed by pipetting several times. The reaction was incubated at room temperature for 1 h. Then 18 μL of ADP-Glo™ Reagent (Promega) was added to stop the kinase reaction and deplete the unconsumed ATP, mixing was performed by pipetting several times. The plate was incubated at room temperature for 40 min before addition of 36 μL of Kinase Detection Reagent (Promega) to convert ADP to ATP and introduce luciferase and luciferin to detect ATP. The reaction was incubated at room temperature for 40 min before the luminescence was measured in a in a Victor 3V 1420 multilabel counter (Perkin Elmer).
# Percent inhibition of the compounds as compared to dimethyl sulfoxide treated control samples was calculated. Compound concentration versus percent inhibition were fitted to generate IC50 values.
# GST tagged PIP4KtypeIIB = target: T2, GST tagged PIP4KtypeIIB (Homo sapiens, UniProt P78356); assay: Trans-FI P kinase assay PIP4K2B (PIP4KtypeIIB inhibition assay); format: biochemical; conditions: Table 4; compounds listed under IC50 range headings; 100 uM GTP, 5 nM PIP4KIIB; read-out: Trans-FI P kinase assays: PIP4K2B IC50
# T2 construct: made in house; host or cells: E. coli
# T2 sequence (P78356 1-416): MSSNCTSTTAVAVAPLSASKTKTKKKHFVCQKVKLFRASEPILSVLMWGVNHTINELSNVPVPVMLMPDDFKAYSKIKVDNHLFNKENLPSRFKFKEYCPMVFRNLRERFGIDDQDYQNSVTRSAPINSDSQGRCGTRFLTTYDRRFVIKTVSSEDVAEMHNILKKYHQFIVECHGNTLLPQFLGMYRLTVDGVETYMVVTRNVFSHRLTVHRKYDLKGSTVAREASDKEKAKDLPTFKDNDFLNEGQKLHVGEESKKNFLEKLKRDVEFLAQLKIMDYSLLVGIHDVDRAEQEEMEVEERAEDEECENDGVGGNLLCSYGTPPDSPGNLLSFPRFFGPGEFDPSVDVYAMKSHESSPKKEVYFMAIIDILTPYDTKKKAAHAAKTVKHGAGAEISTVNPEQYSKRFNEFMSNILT
# Description: GST tagged PIP4KtypeIIA and B enzymes were overexpressed in E. Coli and purified to >80% homogeneity. Phosphatidyl inositol-5-phosphate (PI5P, Cat. #850152, Avanti Polar Lipids Inc.) was used as the lipid substrate and phosphatidyl ethanolamine (DOPE 18:1, Cat. #850725, Avanti Polar Lipids Inc.) was used as the carrier lipid for assays. Ultrapure ATP and GTP was purchased from Bellbrooke Labs. ADP Glo reagents were obtained from Promega. Transcreener FI reagent was obtained from Bellbrooke labs.
# 1. HEPES buffer mix: 200 mM HEPES pH 7.4, 50 mM MgCl2, 0.05% v/v triton×100
# 2. HNE buffer: 20 mM HEPES, pH 7.4, 100 mM NaCl, 0.5 mM EGTA
# 3. H:E buffer: 30 mM HEPES, pH 7.4, 1 mM EGTA
# GST-tagged PIP4KtypeIIB (3.4 uL, 2.77 mg/mL) was diluted to 5 mL using HNE buffer to yield 5× enzyme stock (25 nM)
# Lipid Preparation: In a 10 mL pyrex glass vial, lug of PI5P and lug of DOPE were suspended in 2.5 mL of HEPES buffer mix and 2.5 mL of H:E buffer. The contents were mixed and sonicated for 3 min to yield a translucent lipid stock.
# Compound Preparation: Compounds were stored as 5 mM stocks in neat DMSO as room temperature in glass vials. 5 mM stocks were diluted to 2 mM and then serially diluted (3×) in neat DMSO in 96 well polypropylene plates. From the serially diluted stocks, 3 uL was delivered into 250 uL of 25% DMSO (in water) to generate 5× compound stocks. Typically, the highest compound conc. was 24 uM.
# The assay volume was kept at 25 uL. To each well of the reaction plate, 10 uL of lipid stock (1:1 ratio PI5P:DOPE) was delivered. This was followed by the addition of 5 uL of compound in 25% DMSO. Then, to each well, 5 uL of 25 nM (5×) typeIIB enzyme was delivered. The contents were mixed well and incubated for 1 h at 27 C. After 1 h, reaction was initiated by adding 5 uL of 500 uM GTP and the contents were mixed well with a multi-channel pipetteman. The final concentration of the reagents are as follows: 50 mM HEPES, pH 7.3, 10 mM MgCl2, 20 mM NaCl, 0.01% v/v triton-X100, 5% DMSO, 100 uM GTP, 80 uM (2 ug) PI5P, 2 ug DOPE, and 5 nM PIP4KIIB Typically, the highest conc. of compounds was 4.8 uM and the lowest conc. was 0.
# After 2 h, the reaction was quenched by adding 25 uL of transcreener FI reagent. The contents were incubated at RT for 1 h and the Fluorescence (Ex: 584 Em: 623) was read using Molecular Devices Paradigm plate reader. […] The blanks were averaged and subtracted from all other wells. Using a calibration curve, RFU was converted to uM GDP (product). IC50 was calculated by plotting the residual activity (expressed as % No inhibitor control) vs. log [Inh. conc.] Table 2 represents PI5P4K activity of compounds (Example No.) of the invention arranged in accordance with the inhibition of PIP4K2 A kinase assay.
IC50 [1] [µM],IC50 (GST tagged PIP4KtypeIIB) [µM],SMILES
0.1 to 1,0.01 to 0.1,"Cc1cc(N2CCn3c(cc4c(-c5cncc(-c6ccc(N7CCCC7=O)cc6)c5)ccnc43)C2=O)nn1C [Example 331, 7-(1,5-dimethyl-1H-pyrazol-3-yl)-4-(5-(4-(2-oxopyrrolidin-1-yl)phenyl)pyridin-3-yl)-8,9-dihydropyrido[3′,2′:4,5]pyrrolo[1,2-a]pyrazin-6(7H)-one]"
0.005 to 0.1,0.1 to 1,"CC(=O)Nc1ccc(-c2cn(C)c3ncc(-c4cncc(-c5ccc(N6CCCC6=O)cc5)c4)cc23)cn1 [Example 343, N-(5-(1-methyl-5-(5-(4-(2-oxopyrrolidin-1-yl)phenyl)pyridin-3-yl)-1H-pyrrolo[2,3-b]pyridin-3-yl)pyridin-2-yl)acetamide]"
0.1 to 1,0.1 to 1,"CC(C)n1cnnc1-c1ccc(-c2cncc(-c3ccnc4[nH]c(C(=O)NCCCCCCCCNC(=O)COc5cccc6c5C(=O)N(C5CCC(=O)NC5=O)C6=O)cc34)c2)cc1 (stereo not drawn) [Example 388, N-(8-(2-((2-(2,6-dioxopiperidin-3-yl)-1,3-dioxoisoindolin-4-yl)oxy)acetamido)octyl)-4-(5-(4-(4-isopropyl-4H-1,2,4-triazol-3-yl)phenyl)pyridin-3-yl)-1H-pyrrolo[2,3-b]pyridine-2-carboxamide]"
0.005 to 0.1,0.1 to 1,"CC(=O)Nc1ncc(-c2cn(C)c3ncc(-c4cncc(-c5ccc(N6CCCC6=O)cc5)c4)cc23)cn1 [Example 350, N-(5-(1-methyl-5-(5-(4-(2-oxopyrrolidin-1-yl)phenyl)pyridin-3-yl)-1H-pyrrolo[2,3-b]pyridin-3-yl)pyrimidin-2-yl)acetamide]"
1 to 2.5,0.01 to 0.1,"O=C(Nc1ccncc1)c1cc2c(-c3cncc(-c4ccc(N5CCCC5=O)cc4)c3)ccnc2[nH]1 [Example 314, 4-(5-(4-(2-oxopyrrolidin-1-yl)phenyl)pyridin-3-yl)-N-(pyridin-4-yl)-1H-pyrrolo[2,3-b]pyridine-2-carboxamide]"

# The remaining lines, values behind:
SMILES,IC50 [1] [µM],IC50 (GST tagged PIP4KtypeIIB) [µM]
"CC(C)n1cnnc1-c1ccc(-c2cncc(-c3ccnc4[nH]c(C(=O)NCCc5ccncc5)cc34)c2)cc1 [Example 371, 4-(5-(4-(4-isopropyl-4H-1,2,4-triazol-3-yl)phenyl)pyridin-3-yl)-N-(2-(pyridin-4-yl)ethyl)-1H-pyrrolo[2,3-b]pyridine-2-carboxamide]",0.1 to 1,0.01 to 0.1
"CCN(C)C(=O)c1ccc(-c2cncc(-c3ccnc4c3cc3n4CCN(C)C3=O)c2)cc1 [Example 324, N-ethyl-N-methyl-4-(5-(7-methyl-6-oxo-6,7,8,9-tetrahydropyrido[3′,2′:4,5]pyrrolo[1,2-a]pyrazin-4-yl)pyridin-3-yl)benzamide]",0.1 to 1,0.01 to 0.1
"CN1CCn2c(cc3c(-c4cncc(-c5ccc(C(=O)N6CC(C)(C)C6)cc5)c4)ccnc32)C1=O [Example 381, 4-(5-(4-(3,3-dimethylazetidine-1-carbonyl)phenyl)pyridin-3-yl)-7-methyl-8,9-dihydropyrido[3′,2′:4,5]pyrrolo[1,2-a]pyrazin-6(7H)-one]",0.1 to 1,0.1 to 1
"CC(C)Cn1cnnc1-c1ccc(-c2cc(-c3ccnc4c3cc3n4CCN(CC4CC4)C3=O)cnc2N)cc1 [Example 391, 4-(6-amino-5-(4-(4-isobutyl-4H-1,2,4-triazol-3-yl)phenyl)pyridin-3-yl)-7-(cyclopropylmethyl)-8,9-dihydropyrido[3′,2′:4,5]pyrrolo[1,2-a]pyrazin-6(7H)-one]",1 to 2.5,0.01 to 0.1
"CNC(=O)c1cc2c(-c3cnc(N)c(-c4ccc(-c5nncn5CC(C)C)cc4)c3)ccnc2o1 [Example 366, 4-(6-amino-5-(4-(4-isobutyl-4H-1,2,4-triazol-3-yl)phenyl)pyridin-3-yl)-N-methylfuro[2,3-b]pyridine-2-carboxamide]",0.005 to 0.1,0.01 to 0.1
"CN(C(=O)c1cc2c(-c3cncc(-c4ccc(N5CCCC5=O)cc4)c3)ccnc2[nH]1)c1ccccc1 [Example 311, N-methyl-4-(5-(4-(2-oxopyrrolidin-1-yl)phenyl)pyridin-3-yl)-N-phenyl-1H-pyrrolo[2,3-b]pyridine-2-carboxamide]",1 to 2.5,0.1 to 1
CN1CCn2c(cc3c(-c4cncc(-c5ccc(-c6nncn6CCC6CC6)cc5)c4)ccnc32)C1=O [Example 369],0.1 to 1,0.01 to 0.1
"O=C1CCCN1c1ccc(-c2cncc(-c3ccnc4nncn34)c2)cc1 [Example 340, 1-(4-(5-([1,2,4]triazolo[4,3-a]pyrimidin-5-yl)pyridin-3-yl)phenyl)pyrrolidin-2-one]",< 5,> 5
"CC(C)n1cnnc1-c1ccc(-c2cc(-c3ccnc4c3cc3n4CCN(CC4CC4)C3=O)cnc2N)cc1 [Example 374, 4-(6-amino-5-(4-(4-isopropyl-4H-1,2,4-triazol-3-yl)phenyl)pyridin-3-yl)-7-(cyclopropylmethyl)-8,9-dihydropyrido[3′,2′:4,5]pyrrolo[1,2-a]pyrazin-6(7H)-one]",0.1 to 1,0.001 to 0.01
"O=C(NCc1cccc2c1COB2O)c1cc2c(-c3cncc(-c4ccc(N5CCCC5=O)cc4)c3)ccnc2[nH]1 [Example 301, N-((1-hydroxy-1,3-dihydrobenzo[c][1,2]oxaborol-4-yl)methyl)-4-(5-(4-(2-oxopyrrolidin-1-yl)phenyl)pyridin-3-yl)-1H-pyrrolo[2,3-b]pyridine-2-carboxamide]",0.005 to 0.1,0.01 to 0.1
